Here are results for 15 molecules from US20230150924A1, “NOVEL COMPOUND HAVING CANCER METASTASIS INHIBITORY ACTIVITY, PREPARATION METHOD THEREFOR, AND PHARMACEUTICAL COMPOSITION FOR INHIBITING CANCER METASTASIS AND INVASION OR TREATING COLORECTAL CANCER, COMPRISING COMPOUND” (CELLGENTEK CO., LTD., priority 2019, published 2023).

The subject of assay [1] is invasion of colorectal cancer cells. Description: In vivo relative invation (invasion; EV and KITENIN controls, no method described). Particulars: relative to EV (=1); KIT = KITENIN.
For another assay, the system named is KAI1 promoter. Put plainly: KAI1 promoter luciferase reporter assay in transfected Caco2 cells. Type of assay: cell-based, human. The conditions noted are these: Homo sapiens, Caco-2, 16 h, 1 μM compound, 16 hours, transfected Caco2 cells, luciferase activity relative to DMSO control (=1); read-out: Relative KAI promoter activity. (In a reporter assay the amount or activity of a reporter protein is the signal.)

Take `O=C(CNC(=O)c1cccc(C(F)(F)F)c1)c1ccc(Cl)cc1` [Example 74, N-(2-(4-chlorophenyl)-2-oxoethyl)-3-(trifluoromethyl)benzamide]: the “In vivo relative invation” value in assay [1] amounted to 1.17. Moreover, the fold induction at 1 µM with KAI1 promoter amounted to 0.78.
As for `CC(Oc1ccccc1)C(=O)NCC(=O)c1ccc(N(C)C)cc1` (stereo not drawn) [Example 89, N-(2-(4-(dimethylamino)phenyl)-2-oxoethyl)-2-phenoxypropanamide], in assay [1], the “In vivo relative invation” value worked out at 1.074. Moreover, the fold induction at 1 µM in the assay on KAI1 promoter came out at 1.27.
On the same counts, the results for `O=C(CNC(=O)c1ccc(-c2ccccc2)cc1)c1ccccc1` [Example 43, N-(2-oxo-2-phenylethyl)-[1,1′-biphenyl]-4-carboxamide] are 0.9774 and 1.91.
On the same counts, the results for `O=C(CNC(=O)c1ccccc1Cl)c1ccc(N2CCOCC2)cc1` [Example 138, 2-chloro-N-(2-(4-morpholinophenyl)-2-oxoethyl)benzamide] are 1.258 and 1.15.
On the same counts, the results for `O=C(CNC(=O)c1cccc([N+](=O)[O-])c1)c1ccccc1` [Example 34, 3-nitro-N-(2-oxo-2-phenylethyl)benzamide] are 1.103 and 1.34.
As for `CCC(=O)NCC(=O)c1ccccc1` [Example 14, N-(2-oxo-2-phenylethyl)propionamide], the “In vivo relative invation” value in assay [1] is on record as 0.9106. In the assay with KAI1 promoter, the fold induction at 1 µM is 1.02.
On the same counts, the results for `COc1cccc(C(=O)CNC(=O)c2cccc(CN3CC(C)OC(C)C3)c2)c1` (stereo not drawn) [Example 295, 3-((2,6-dimethylmorpholino)methyl)-N-(2-(3-methoxyphenyl)-2-oxoethyl)benzamide] are 1.311 and 1.52.
On the same counts, the results for `Cc1ccccc1C(=O)NCC(=O)c1ccccc1` [Example 11, 2-methyl-N-(2-oxo-2-phenylethyl)benzamide] are 1.036 and 1.82.
On the same counts, the results for `C=CC(=O)NCC(=O)c1ccc(N(C)C)cc1` [Example 95, N-(2-(4-(dimethylamino)phenyl)-2-oxoethyl)acrylamide] are 1.16 and 1.21.
Consider `O=C(CNC(=O)c1ccccc1OC1CCN(C(=O)c2ccc(F)cc2Cl)CC1)c1ccccc1` [Example 194, 2-((1-(2-chloro-4-fluorobenzoyl)piperidin-4-yl)oxy)-N-(2-oxo-2-phenylethyl)benzamide], for which the “In vivo relative invation” value in assay [1] is 1.259. For the same molecule, the fold induction at 1 µM in the assay on KAI1 promoter turned out to be 1.01.
Regarding `O=C(CNC(=O)c1ccccc1OC1CCN(C(=O)c2ccc(F)cc2F)CC1)c1ccccc1` [Example 177, 2-((1-(2,4-difluorobenzoyl)piperidin-4-yl)oxy)-N-(2-oxo-2-phenylethyl)benzamide], the “In vivo relative invation” value in assay [1] stood at 1.159. In addition, in the assay on KAI1 promoter, the fold induction at 1 µM came to 0.95.
On the same counts, the results for `CC(C)(C)C(=O)NCC(=O)c1ccccc1` [Example 24, N-(2-oxo-2-phenylethyl)pivalamide] are 1.128 and 0.84.
On the same counts, the results for `O=C(CNC(=O)c1ccccc1F)c1ccc(Cl)cc1` [Example 44, N-(2-(4-chlorophenyl)-2-oxoethyl)-2-fluorobenzamide] are 0.9752 and 0.98.
On the same counts, the results for `CN(C)c1ccc(C(=O)CNC(=O)c2ccc(C(F)(F)F)cc2)cc1` [Example 114, N-(2-(4-(dimethylamino)phenyl)-2-oxoethyl)-4-(trifluoromethyl)benzamide] are 1.197 and 1.38.
For `COc1cccc(C(=O)CNC(=O)c2cccc(CN(C)Cc3ccccc3)c2)c1` [Example 286, 3-((benzyl (methyl)amino)methyl)-N-(2-(3-methoxyphenyl)-2-oxoethyl)benzamide], the “In vivo relative invation” value in assay [1] is given as 1.233. Further, the fold induction at 1 µM in the assay with KAI1 promoter was 1.43.
